Data reported in patent US8304455B2, “Compositions and methods of their use for improving the condition and appearance of skin” (Avon Products, Inc, priority 2004, dated 2012).
Where “and” joins values, the source holds several entries; their conditions need not be identical. Equal values may be shown once.

What was measured:
Assay type in all cases: cell-based
Details in all cases: normal human epidermal keratinocytes; transcript numbers normalized to vehicle control; replicate values
Hyaluronic acid synthase = test: PCR gene expression, Hyaluronic acid synthase; set-up: key: (—): Not statistically significant
Method: (§1) A vial of cryopreserved normal human epidermal keratinocytes (Adult or Neonatal) was removed from liquid N2 and placed in a 37° C. water bath for 1-2 minutes, or until completely thawed. The vial was then removed from the water bath and the excess water was wiped off. The vial was placed into a cell culture hood for sterility. The vial was wiped with 70% ethanol to air dry for 30 seconds. While in the cell culture hood, the cells were removed from the vial and placed into a 50 ml tube. The appropriate growth media (5 ml) was added drop wise while agitating the tube, allowing uniform mixture of the cells and medium while limiting cell death due to osmotic changes caused by freezing media, Medium (25 ml) was added to the 50 ml tube to bring the volume up to 30 ml. Into two 75 cm2 flasks, medium/cell solution (15 ml) was added, or to six 25 cm2 flasks, medium (5 ml) was added. Flasks were recapped and placed horizontally in a 37° C. humidified incubator with 5% CO2 for 24 hours. After 24 hours, the old medium was aspirated and fresh room temperature growth medium (15 ml) was added onto the cells. Prior to adding the fresh growth medium, it was brought up to room temperature using a room temperature water bath without the cover. The flasks containing cells with fresh media were placed back into the 37° C. incubator. Flasks containing the old media was replaced with fresh media repeatedly until the desired confluence (75%) was reached.
(§2) When the cells reached the desired confluency, they were removed from the incubator and the media was aspirated off using a vacuum trap. Hank's Buffered Saline Solution (HBSS; 10 ml of 1X; Mediatech, Inc.; Herndon, Va.) was placed into the flask and the entire surface area rinsed. The HBSS was then aspirated. Trypsin (1X; Mediatech, Inc.) was added in a 5 ml volume. The flasks were placed back into the incubator for 8 minutes. The flasks were taken from the incubator and 15 ml of Trypsin Neutralizing Solution (1X; Cascade Biologics; Portland, Oreg.) was added to each flask to neutralize the trypsin. […]

Beta-catenin = test: PCR gene expression, Beta-catenin
Method: as §1, §2

Collagen 7 = test: PCR gene expression, Collagen 7
Method: as §1, §2

Frizzled 10 = test: PCR gene expression, Frizzled 10
Method: as §1, §2

Collagen 4 = test: PCR gene expression, Collagen 4
Method: as §1, §2

Estrogen Receptor alpha = test: PCR gene expression, Estrogen Receptor alpha
Method: as §1, §2

| Structure (SMILES) | Hyaluronic acid synthase Transcript # (Hyaluronic acid synthase) | Beta-Catenin Transcript # (Beta-catenin) | Collagen 7 Transcript # (Collagen 7) | Frizzled 10 Transcript # (Frizzled 10) | Collagen 4 Transcript # (Collagen 4) | Estrogen Receptor alpha Transcript # (Estrogen Receptor alpha) |
| --- | --- | --- | --- | --- | --- | --- |
| CCNC(=O)CC[C@H](N)C(=O)O [L-Theanine, L-theanine] | 10.53 and 7.971 and 8.113 | 10.31 and 8.678 (2×) | 12.87 and 10.72 and 11.44 | 17.68 and 16.48 and 17.08 | 10.79 and 9.561 and 10.49 | 13.03 and 12.39 and 7.627 |
| N[C@@H](CSc1ccccc1)C(=O)O [S-Phenyl-L-Cysteine] | 3.637 (2×) and 3.423 | 14.67 and 15.49 and 11.41 | 35.46 and 34.38 and 30.09 | 34.68 and 26.67 and 30.62 | 7.416 and 8.343 and 8.807 | 8.12 and 10.99 and 8.598 |
| CSC[C@H](N)C(=O)O [S-Methyl-L-Cysteine] | — | 8.657 and 10.39 and 9.955 | 14.83 and 16.55 (2×) | 18.65 and 16.26 and 18.41 | 9.845 and 10.83 and 9.353 | 6.087 and 5.073 |
